Patent publication US20040077689A1, “Abc expression promoters” (priority 2001, published 2004)
Where a name gives a salt, the structure may show the parent alone.

Tests used:
Assay type in all cases: cell-based
ABCG1 mRNA [1] = test: Expression modulatory activity for ABCG1 mRNA in human monocyte-derived cells; settings: THP-1 cells, test compound 1 μM, 24 hours; Not added = 100.0; Mean ± SEM (n = 3)
Experimental: (§1) To a PMA (phorbol 12-myristate 13-acetate, 400 ng/mL)-FBS (fetal bovine serum, 10%)-containing RPMI medium was suspended human monocyte -derived THP-1 cells (ATCC) (7×10^5 cell/mL), and the obtained suspension was dispensed into a 24-well plate (0.5 mL/well) and cultured for 3 days. After removing the medium, a FBS (fetal bovine serum, 10%)—containing RPMI1640 medium into which a test compound (1 μM) had been added was added to the 24-well plate and the plate was cultured for 24 hours. Whole RNA was extracted from the cultured cells using RNeasy Mini Kit (QIAGEN), and then the expression amounts of LXRα mRNA, ABCA1 mRNA, ABCG1 mRNA and Human acidic ribosomal protein (huPO; 36B4) mRNA as an internal standard were measured by real-time quantitative RT-PCR according to TaqMan PCR method using a TaqMan EZ RT-PCR kit (Applied Biosystems). […]
(§2) The expression amount of Human acidic ribosomal protein (huPO; 36B4) mRNA was measured using Pre-Developed TaqMan Assay Reagents Endogenous Control (Human Acidic ribosomal protein (huPO)) (Applied Biosystems), and VIC was used as a reporter dye and TAMRA was used as a quencher dye. […]

ACAT-1 mRNA = test: Expression modulatory activity for ACAT-1 mRNA in human monocyte-derived cells; settings: THP-1 cells, test compound 1 μM, 2 days + 1 day; Not added = 100.0; Mean ± SEM (n = 3)
Experimental: (§3) In a RPMI medium containing a test compound (1 μM), PMA (phorbol 12-myristate 13-acetate, 400 ng/mL)-FBS (fetal bovine serum, 10%) was suspended human monocyte-derived THP-1 cells (purchased from Dainippon Pharmaceutical Co., Ltd.) (7.2×10^5 cell/mL). The obtained suspension was dispensed into a 24 well plate (0.5 mL/well) and cultured for 2 days (3.6×10^5 cells). After the medium was removed, a RPMI medium containing the test compound (1 μM), PMA(400 ng/mL)-FBS(10%) was added to the plate and it was cultured further for 1 day.
(§4) After the medium was removed, whole RNA was extracted from the obtained cells using RN easy Mini Kit (QIAGEN), and the expression amounts of ACAT-1 mRNA, CEH mRNA and human acidic ribosomal protein (huPO; 36B4) mRNA as an internal standard were measured by real-time quantitative RT-PCR according to TaqMan PCR method using a TaqMan EZ RT-PCR kit (Applied Biosystems).
In the above mentioned method, for the measurement of the expression amount of the ACAT-1mRNA, oligo DNAs represented by
5′-[…]-3′ (SEQ ID NO: 19),
5′-[…]-3′ (SEQ ID NO: 20) and […]
(§5) The expression amount of human acidic ribosomal protein (huPO; 36B4) mRNA was measured according to the method similar to Experimental Example 1. Real-time quantitative RT-PCR was carried out similarly to Experimental Example 1. […]

LXRα mRNA [2] = test: Expression modulatory activity for LXRα mRNA in human monocyte-derived cells; settings: THP-1 cells, test compound 1 μM, 24 hours; Not added = 100.0; Mean ± SEM (n = 3)
Experimental: as §1, §2

LXRα mRNA [3] = test: Expression modulatory activity for LXRα mRNA in mouse macrophages; settings: C57BL6/J mouse peritoneal macrophages, test compound 1 μM, 24 hours; Not added = 100.0; Mean ± SEM (n = 3)
Experimental: (§6) A C57BL6/J mouse (male, 10 weeks old) was intraperitoneally administered with 1 mL of a 5% thioglycolic acid medium (Wako Pure Chemical Industries, Ltd.). After 4 days, intraperitoneal cells were collected with phosphate-buffered saline (PBS), and macrophages were separated in a 3% BSA-containing DMEM medium as cells adhesive to a plate. After incubation of the macrophages overnight in a DMEM medium containing 10% human lipoprotein-removed serum, the medium was replaced with a DMEM medium containing a test compound (1 μM) and 10% fetal bovine serum and cultured for 24 hours.
(§7) After the medium was removed, whole RNA was extracted from the obtained macrophage using RNeasy Mini Kit (QIAGEN) and then the expression amounts of the LXRαmRNA, ABCG1mRNA and mouse acidic ribosomal protein (36B4) mRNA as an internal standard were measured by real-time quantitative RT-PCR according to TaqMan PCR method using a TaqMan EZ RT-PCR kit (Applied Biosystems). […]
(§8) Real-time quantitative PCR was carried out according to the similar manner to Experimental Example 1.
(§9) Based on the ratio of the expression amount of the LXRαmRNA and ABCG1mRNA relative to the internal standard (expression amount of mouse acidic ribosomal protein mRNA), the expression modulatory activities for the LXRα mRNA and ABCG1 mRNA of the test compound were evaluated.

CEH mRNA = test: Expression modulatory activity for CEH mRNA in human monocyte-derived cells; settings: THP-1 cells, test compound 1 μM, 2 days + 1 day; Not added = 100.0; Mean ± SEM (n = 3)
Experimental: as §3, §4
Furthermore, for the measurement of the expression amount of the CEH mRNA, oligo DNAs represented by
5′-AGCCCTTGGCTGAGCAAA-3′ (SEQ ID NO: 22),
5′-GTCGCAGGCAGTGAACCAT-3′ (SEQ ID NO: 23) and
5′-[…]-3′ (SEQ ID NO: 24) […]
as §5

ABCG1 mRNA [4] = test: Expression modulatory activity for ABCG1 mRNA in mouse macrophages; settings: C57BL6/J mouse peritoneal macrophages, test compound 1 μM, 24 hours; Not added = 100.0; Mean ± SEM (n = 3)
Experimental: as §6, §7, §8, §9

ABCA1 mRNA = test: Expression modulatory activity for ABCA1 mRNA in human monocyte-derived cells; settings: THP-1 cells, test compound 1 μM, 24 hours; Not added = 100.0; Mean ± SEM (n = 3)
Experimental: as §1, §2

[5] = tested on: human monocyte-derived THP-1 cells; test: Foaming-suppressant activity in human monocyte-derived cells (intracellular lipid content); settings: for Intracellular lipid content FC (free cholesterol) / Intracellular lipid content TC (total cholesterol) / Intracellular lipid content CE (cholesteryl ester): test compound 1 μM, rabbit β-VLDL loading 2 days; for Intracellular lipid content FC (free cholesterol): Not added = 80.8 ± 1.2, Mean ± SEM (n = 3); for Intracellular lipid content TC (total cholesterol): Not added = 114.8 ± 1.8, Mean ± SEM (n = 3); for Intracellular lipid content CE (cholesteryl ester): calculated as TC minus FC, Not added = 34.0 ± 2.3, Mean ± SEM (n = 3)
Experimental: In a RPMI1640 medium containing a test compound (1 μM), PMA (phorbol 12-myristate 13-acetate, 400 ng/ml) and 10% fetal bovine serum was suspended human monocyte-derived THP-1 cells (purchased from Dainippon Pharmaceutical Co., Ltd.). The obtained suspension was dispensed into a 12-well plate (7.2×10^5 cells) and was cultured for 3 days. The obtained cell was further cultured in a RPMI1640 medium containing the test compound and 0.2 mM oleic acid-0.2% bovine serum albumin complex and rabbit β-VLDL (200 μg cholesterol/mL) for 2 days, and then the total lipids in the cells were extracted with a mixed solution of n-hexane/isopropanol (3:2). The amounts of the total cholesterol (TC) and free cholesterol (FC) in the extract were measured with a enzyme method [using Cholesterol E-Test Wako (trade name, Wako Pure Chemical Industries, Ltd.)], and the amount of cholesteryl ester (CE) was calculated by the difference between the two cholesterol amounts. The intracellular lipid content was then evaluated by dividing the amounts of these lipids by the amount of cell protein (measured using BCA assay kit (Pierce)). In the Table, TC represents total cholesterol, FC represents free cholesterol and CE represents cholesteryl ester.

| Compound | Expression amount of mRNA (Relative ratio % to internal standard) ABCG1 (ABCG1 mRNA [1]) [%] | Expression amount of mRNA (Relative ratio % to internal standard) ACAT-1 (ACAT-1 mRNA) [%] | Expression amount of mRNA (Relative ratio % to internal standard) LXRα (LXRα mRNA [2]) [%] | Expression amount of mRNA (Relative ratio % to internal standard) LXRα (LXRα mRNA [3]) [%] | Expression amount of mRNA (Relative ratio % to internal standard) CEH (CEH mRNA) [%] | Expression amount of mRNA (Relative ratio % to internal standard) ABCG1 (ABCG1 mRNA [4]) [%] | Expression amount of mRNA (Relative ratio % to internal standard) ABCA1 (ABCA1 mRNA) [%] | foaming-suppressant activity ([5]; conclusion based on the decrease in the amount of cholesteryl ester, 1 μM) | Intracellular lipid content FC (free cholesterol) [5] [μg/mg cell protein] | Intracellular lipid content TC (total cholesterol) [5] [μg/mg cell protein] | Intracellular lipid content CE (cholesteryl ester) [5] [μg/mg cell protein] |
| --- | --- | --- | --- | --- | --- | --- | --- | --- | --- | --- | --- |
| Cc1oc(-c2ccccc2)nc1COc1ccc(CO/N=C(\CCC(=O)O)c2ccccc2)cc1 [Compound (7), E-4-[4-(5-methyl-2-phenyl-4-oxazolylmethoxy)benzyloxyimino]-4-phenylbutyric acid] | 265.5 ± 22.0 | 66.1 ± 1.5 | 160.1 ± 9.0 | 173.0 ± 9.9 | 159.4 ± 1.9 | 159.1 ± 6.1 | 113.5 ± 5.5 | have foaming-suppressant activity | 72.0 ± 1.3 | 95.8 ± 1.4 | 23.7 ± 1.9 |
| CCc1ccc(CCOc2ccc(CC3SC(=O)NC3=O)cc2)nc1 (stereo not drawn) [Pioglitazone hydrochloride, reference compound] | 252.0 ± 9.2 | 65.8 ± 1.9 | 165.7 ± 4.6 | 145.3 ± 17.9 | 148.6 ± 9.2 | 195.2 ± 23.1 | 108.2 ± 3.5 |  | 72.7 ± 0.4 | 100.3 ± 0.3 | 27.6 ± 0.5 |
